From paper PMC10892719 (Pharmaceutics, 2024) come the findings set out here.

Test [1] concerns SH-SY5Y cells. In words: Neuroprotection against Aβ1-42-induced toxicity, MTT. In kind it is cell-based, human. The following applies: Aβ1-42 1 µM, 24 h, optimized concentration of each compound. As to the method:
Cell viability, following treatment with the compounds, was determined using the colorimetric MTT (3-(4,5-dimethylthiazol-2-yl)-2,5-diphenyltetrazolium bromide) assay. The tested compounds (5a1-3, 5b1-3, 5c1-3) were dissolved in DMSO to produce stock solutions of 25 mM and stored at −20 °C. A concentration screening was performed for 0.5 µM to 20 µM final concentrations to choose the highest nontoxic concentration. SH-SY5Y human neuroblastoma cell line (ATCC-CRL-2266) was cultured in Dulbecco’s modified Eagle’s medium (DMEM) (Gibco-Invitrogen, Life Technologies Ltd., Waltham, MA, USA) with heat-inactivated fetal calf serum (10%), penicillin (50 U/mL) and streptomycin (50 µg/mL) at 37 °C with 5% CO2. Cells were plated at 0.15 × 10^6 cells/mL one day prior to the start of the experiment. The cells were then incubated with the appropriate concentration of the compounds for 24 h. After the incubation period, the cells were washed once with PBS and incubated with 200 µL MTT (0.5 mg/mL) for 2 h at 37 °C with 5% CO2. During this period, cellular dehydrogenase successfully metabolized MTT into formazan, which was then solubilized using 200 µL of 0.04 M HCl/isopropanol. Absorbance was measured at 570 nm.
To test whether the compounds have a protective effect against toxicity induced by Aβ1-42 or iron/ascorbate, the cells were pre-incubated for 1 h with each compound, followed by the addition of Aβ1-42 or iron/ascorbate and incubation for an additional 24 h. Aβ1-42 (Bachem, Torrance, CA, USA) was prepared in sterile water to produce a stock solution of 443 µM and added to the cells at a final concentration of 1 µM. Ferrous sulfate and L-ascorbic acid (Sigma Chemical Co, St. Louis, MO, USA), prepared in sterile water, were added to the medium together at a final concentration of 5 mM and 2.5 mM, respectively. For this assay, the optimal concentration of each compound was used to prevent cellular demise induced by Aβ1-42 or iron/ascorbate. Compound 5a1 was added to the medium at a 1 µM final concentration; compounds 5a2, 5a3, 5b1, 5b2 and 5c2 were added to the medium at a 2.5 µM final concentration; compounds 5c1 and 5c3 were added to the medium at a 5 µM final concentration; and compound 5b3 was added to the medium at a 10 µM final concentration. […] Controls were employed for each plate using untreated cells and Aβ1-42 or iron/ascorbate only. Cell reduction ability was normalized to the untreated condition. All data are expressed as mean ± SEM of at least three independent experiments performed in duplicate. Statistical analyses were performed for normality assessment using Shapiro–Wilk’s test followed by the Kruskal–Wallis test considering that normality was not verified. Post hoc analysis was performed using uncorrected Dunn’s test. A p value < 0.05 was considered statistically significant.
Figure 4 Neuroprotective effect of RIV-IND compounds against cellular toxicity induced by Aβ1-42 measured by MTT reduction ability on SH-SY5Y cells pretreated with […] for one hour, followed by a 24 h incubation with the optimized concentration of each compound. Results are expressed relatively to untreated cells, with the mean ± standard error of the mean (SEM) derived from three to seven independent experiments. * p < 0.05; ** p < 0.01; *** p < 0.001; **** p < 0.0001 compared to untreated cells. # p < 0.05 compared to Aβ1-42-treated cells. (The dot line indicates the decrease in cellular viability induced by Aβ).

The nature of test [2]: DPPH free radical scavenging (antioxidant) assay. The note with it: read-out: Antioxidant Activity EC50; DPPH method, mean of three independent experiments.
Protocol: The radical scavenging activity (antioxidant capacity) of the herein-developed RIV-IND hybrids was determined by the DPPH method [33]. Working solutions of the compounds in 10% DMSO/MeOH (, HoneywellSeelze, Germany) medium were used to prepare 5 methanolic solutions (5 points, 3 replicates) containing DPPH (Sigma-Aldrich, Steinheim, Germany) and different concentrations of compound up to 3.5 mL total volume. […] The respective antioxidant activity (%AA) was calculated using the following equation: %AA=ADPPH−Aligand/ADPPH×100
The reported results were obtained as the mean values of three independent experiments.
The new RIV-IND compounds were also screened for their radical scavenging activity (EC50), according to the 2,2-diphenyl-1-picrylhydrazyl (DPPH) free radical method.
Test [3] has as its target T1, equine butyrylcholinesterase (eqBChE) (Equus caballus, UniProt P81908).
T1 construct: purchased Sigma-Aldrich (Steinheim, Germany)
In words: BChE inhibition, adapted Ellman method. In kind it is biochemical. The following applies: for SI (selectivity index): IC50 (AChE)/IC50 (BChE); for IC50: eqBChE, mean of two independent experiments ± SD, read-out: BChE Inhib IC50. The protocol: (§1) The enzyme inhibition of electric eel acetylcholinesterase (eeAChE) and equine butyrylcholinesterase (eqBChE) by our compounds was evaluated through an adaptation of Elmman´s method using reagents from Sigma-Aldrich (Steinheim, Germany). Stock solutions of each compound (1 mg) in MeOH (1 mL) were prepared and then working solutions for each ligand were obtained by the corresponding dilution of the stock solutions. A control measurement with 5 replicates (without ligand) and a calibration curve of 5 points with 3 replicates per point was performed. The preparation of each solution involved fixed volumes of 4-(2-hydroxyethyl)-1-piperazine-ethanesulfonic acid (HEPES) and cholinesterase (eeAChE or eqBChE) with different volumes of ligand solution, and it was left to rest for 15 min immediately after adding the cholinesterase. A blank solution containing HEPES and MeOH was also prepared at the same time. […] The slope for each calibration point (absorbance versus reaction time) was determined and the inhibition for each compound was calculated by using the following equation: %Inhibition=100−(vi/v0×100) where vi is the reaction rate (slope) for each point of the calibrate with ligand and v0 is the initial reaction rate (slope) for the control point (without ligand). […] Experiments were performed twice for each compound.

For test [4], the target named is T2, electric eel acetylcholinesterase (eeAChE) (Electrophorus electricus, UniProt O42275).
T2 construct: purchased Sigma-Aldrich (Steinheim, Germany)
As to the kind of experiment: AChE inhibition, adapted Ellman method. The format is biochemical. The following applies: mean of two independent experiments ± SD, read-out: AChE Inhib IC50. The protocol: as §1

T1 sequence (P81908 whole entry): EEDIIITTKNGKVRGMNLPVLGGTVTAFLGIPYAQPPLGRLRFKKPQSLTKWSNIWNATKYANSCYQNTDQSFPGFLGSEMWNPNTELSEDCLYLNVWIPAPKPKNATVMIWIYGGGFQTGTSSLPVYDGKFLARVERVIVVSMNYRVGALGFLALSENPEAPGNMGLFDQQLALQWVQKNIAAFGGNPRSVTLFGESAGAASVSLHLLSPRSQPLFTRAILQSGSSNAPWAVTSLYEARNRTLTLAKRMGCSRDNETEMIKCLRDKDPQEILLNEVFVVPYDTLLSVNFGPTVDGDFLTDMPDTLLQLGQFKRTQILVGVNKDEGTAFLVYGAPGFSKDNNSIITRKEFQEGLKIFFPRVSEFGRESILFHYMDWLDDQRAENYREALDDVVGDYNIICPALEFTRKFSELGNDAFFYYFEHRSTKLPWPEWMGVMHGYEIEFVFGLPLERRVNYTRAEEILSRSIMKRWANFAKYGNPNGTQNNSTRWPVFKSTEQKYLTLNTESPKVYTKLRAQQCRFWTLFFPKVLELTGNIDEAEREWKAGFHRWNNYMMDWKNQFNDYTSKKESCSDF
T2 sequence (O42275 24-633): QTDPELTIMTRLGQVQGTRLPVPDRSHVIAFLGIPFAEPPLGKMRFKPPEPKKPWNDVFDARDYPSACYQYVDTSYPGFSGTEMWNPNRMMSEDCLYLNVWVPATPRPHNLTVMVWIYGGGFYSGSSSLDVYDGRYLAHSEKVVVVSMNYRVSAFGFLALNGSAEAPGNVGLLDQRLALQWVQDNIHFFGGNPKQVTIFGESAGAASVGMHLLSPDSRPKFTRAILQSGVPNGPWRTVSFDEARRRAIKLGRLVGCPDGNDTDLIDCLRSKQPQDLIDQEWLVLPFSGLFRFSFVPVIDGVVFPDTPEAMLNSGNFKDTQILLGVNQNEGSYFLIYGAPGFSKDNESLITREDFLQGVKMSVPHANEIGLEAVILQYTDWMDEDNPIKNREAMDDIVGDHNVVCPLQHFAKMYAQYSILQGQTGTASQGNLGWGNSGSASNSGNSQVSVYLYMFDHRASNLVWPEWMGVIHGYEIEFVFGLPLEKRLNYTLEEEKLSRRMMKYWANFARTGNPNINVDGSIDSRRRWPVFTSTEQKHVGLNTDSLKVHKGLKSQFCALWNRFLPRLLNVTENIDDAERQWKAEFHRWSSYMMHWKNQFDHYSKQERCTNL

Take `CCN(C)C(=O)Oc1cccc(NC(=O)c2cc3cccc(O)c3[nH]2)c1` [Compound 5a3, 3-(7-Hydroxy-1H-indole-2-carboxamido)phenyl ethyl(methyl)carbamate]: in test [1], the “neuroprotective effect against toxicity induced by Aβ1-42” value is given as “also present neuroprotection”. In addition, the 50% effective concentration (EC50) in test [2] came to 14.5 ± 0.5 µM. Moreover, the “SI (selectivity index)” value in test [3] stood at 1.05. Moreover, the IC50 in test [3] was 10.4 ± 0.4 µM; in test [4], 10.9 ± 0.1 µM.
For `CCN(C)C(=O)Oc1cccc(CNC(=O)c2cc3ccccc3[nH]2)c1` [Compound 5b1, 3-((1H-indole-2-carboxamido)methyl)phenyl ethylmethylcarbamate], in that order: “able to rescue Aβ1-42-induced toxicity to levels that were not significantly different from untreated cells”, above 2000 µM, 9.4, 8.3 ± 0.1 µM and 78.4 ± 0.8 µM.
